One compound from ChEMBL document CHEMBL4842322, “A naphthalimide-polyamine conjugate preferentially accumulates in hepatic carcinoma metastases as a lysosome-targeted antimetastatic agent” (Eur J Med Chem, 2021) can be followed below.

pIC50: −log10 of the molar value. The source made the active and inactive calls. The calls are words filed in the database; no cut-off is given here.

Data set [1] in a line: Selectivity index, ratio of IC50 for human HL7702 cells to IC50 for human Huh-7 cells. The format is toxicity. The settings on record: HL7702 cells and Huh-7 cells, read-out: Ratio IC50.
A short description of data set [2]: Antitumor activity against human HCC cells xenografted in BALB/c mouse assessed as inhibition of tumor weight at 5 mg/kg, iv administered once daily for 7 days. In kind it is functional. The settings on record: 168 h, time 7 day.
Data set [3] in a line: Toxicity in BALB/c mouse xenografted with human HCC cells assessed as effect on spleen weight index at 1 to 5 mg/kg, iv administered once daily for 7 days. The format is organism-based. As to conditions: in vivo, 168 h, dose 1-5 mg/kg, time 7 day.
Data set [4] is described as follows: Drug uptake in lysosomes of human HepG2 cells at 10 uM incubated for 8 hrs by Lyso-tracker dye based laser confocal microscopy. The settings on record: hepg2, 8 h. In kind it is ADME, subcellular, Lysosome.
Data set [5] is described as follows: Ratio of cisplatin IC50 to test compound IC50 for human A549 cells by MTT assay. In kind it is functional.
The next data set has as its system Huh-7. The data set is described as follows: Cytotoxicity against human Huh-7 cells assessed as inhibition of cell growth measured after 24 hrs by MTT assay. In kind it is functional, cell-based. The settings on record: Huh-7, 24 h.
Data set [6] relates to A549. The data set is described as follows: Cytotoxicity against human A549 cells assessed as inhibition of cell growth incubated for 48 hrs by MTT assay. In kind it is functional, cell-based. As to conditions: A549, 48 h.
Data set [7] deals with HepG2. The data set is described as follows: Inhibition of tumor metastasis in human HepG2 cells assessed as upregulation of SSAT gene expression level at 5 to 15 uM measured after 24 hrs by qRT-PCR analysis. The format is functional, cell-based. As to conditions: dose 5-15 µM.
The nature of data set [8]: Toxicity in BALB/c mouse xenografted with human HCC cells assessed as effect on body weight at 1 to 5 mg/kg, iv administered once every 2 days for 14 days. In kind it is organism-based. The settings on record: in vivo, 336 h, dose 1-5 mg/kg, time 14 day.
The test system of data set [9] is HepG2. In words: Potency index, ratio of amonafide IC50 to test compound IC50 for human HepG2 cells by MTT assay. In kind it is functional.
The next data set deals with MCF7. In words: Cytotoxicity against human MCF7 cells assessed as inhibition of cell growth incubated for 48 hrs by MTT assay. The format is functional, cell-based. As to conditions: MCF7, 48 h.
Data set [10] deals with A549. In words: Inhibition of tumor metastasis in cisplatin-resistant human A549 cells assessed as upregulation of p53 expression level at 5 to 15 uM measured after 24 hrs by western blot analysis. In kind it is functional, cell-based. As to conditions: dose 5-15 µM.
Data set [11] has as its system MDA-MB-231. In words: Cytotoxicity against human MDA-MB-231 cells assessed as inhibition of cell growth incubated for 48 hrs by MTT assay. As to conditions: MDA-MB-231, 48 h. In kind it is functional, cell-based.
Data set [12] concerns A549. The data set is described as follows: Inhibition of tumor metastasis in cisplatin-resistant human A549 cells assessed as downregulation of HMGB1 protein expression level measured after 24 hrs by western blot analysis. As to conditions: dose 5-15 µM. In kind it is functional, cell-based.
Data set [13] can be described thus: Antitumor activity against human HCC cells xenografted in BALB/c mouse assessed as inhibition of tumor weight at 1 mg/kg, iv administered once daily for 7 days. The format is functional. The settings on record: 168 h, time 7 day.
A short description of data set [14]: Toxicity in BALB/c mouse xenografted with human HCC cells assessed as effect on kidney weight index at 1 to 5 mg/kg, iv administered once daily for 7 days. As to conditions: in vivo, 168 h, dose 1-5 mg/kg, time 7 day. The format is organism-based.
Data set [15] is described as follows: Selectivity index, ratio of IC50 for human HL7702 cells to IC50 for human HepG2 cells. The format is toxicity. The settings on record: HL7702 cells and HepG2 cells, read-out: Ratio IC50.
The test system of data set [16] is A549. In words: Inhibition of tumor metastasis in cisplatin-resistant human A549 cells assessed as upregulation of p62 protein expression level at 5 to 15 uM measured after 24 hrs by western blot analysis. In kind it is functional, cell-based. The settings on record: dose 5-15 µM.
For data set [17], the system named is HepG2. In words: Cytotoxicity against human HepG2 cells assessed as inhibitory of cell growth measured after 24 hrs by MTT assay. The settings on record: HepG2, 24 h. The format is functional, cell-based.
In data set [18] the test system is HepG2. In words: Cytotoxicity against human HepG2 cells assessed as inhibition of cell growth incubated for 48 hrs by MTT assay. In kind it is functional, cell-based. As to conditions: HepG2, 48 h.
A short description of data set [19]: Antimetastatic activity against human HCC cells xenografted in BALB/c mouse assessed as reduction lung metastatic nodules at 3 mg/kg, iv administered once every 2 days for 14 days. As to conditions: 336 h, time 14 day. In kind it is functional.
The subject of data set [20] is MDA-MB-231. In words: Potency index, ratio of cisplatin IC50 to test compound IC50 for human MDA-MB-231 cells by MTT assay. The format is functional.
In data set [21] the test system is HepG2. The data set is described as follows: Potency index, ratio of cisplatin IC50 to test compound IC50 for human HepG2 cells by MTT assay. The format is functional.

Take `NCCCCNCCCCNCCCCN1C(=O)c2cccc3cc(NC(=O)CN)cc(c23)C1=O`: the figures for the selectivity ratio in data set [1] and in [15] were 6.43 and 4.77, respectively. In addition, the inhibition in vivo at 5 mg/kg in [2] turned out to be 76%. The Activity result in [3], in data set [8] and in [14] was “Non-Toxic” throughout. Also, the Drug uptake result in data set [4] is “Active”. Further, the “Ratio IC50” value in [5] was 0.5; in the data set with HepG2 [9], 7.1; with MDA-MB-231 [20] it was 2.11; in the data set with HepG2 [21], 6.74. Further, the pIC50 was 6.01 with Huh-7; 4.69 in the data set with A549 [6]; 4.79 in the data set on MCF7; 4.81 in the data set with MDA-MB-231 [11]; 5.88 in the data set with HepG2 [17]; 5.88 in the data set with HepG2 [18]. The inhibition entry in the data set with HepG2 [7], in the data set with A549 [10] and with A549 [16] was “Active” each time. In addition, in the data set with A549 [12], the inhibition result is “Dose-Dependent Effect”. Besides, the inhibition in vivo at 1 mg/kg in [13] was determined as 58.5%. In addition, the inhibition in vivo at 3 mg/kg in data set [19] was 65.5%.
